Read-outs that look alike come from different tables or passages of the source.
Target: T1, mTOR (Homo sapiens, UniProt P42345)
T1 construct: FLAG; made in house
Test: In Vitro mTOR Kinase Assay (Echo), Test (a)(ii)
Type: biochemical
Summary of the method: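 FLAG-tagged human mTOR truncation (residues 1362-2549) expressed in HEK293 cells and FLAG-purified. Compounds dispensed acoustically, reaction 2 h at room temperature, stopped with EDTA. Phosphorylation of biotinylated peptide detected by AlphaScreen with anti-p70 S6K (T389) antibody overnight; IC50 reported.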

[1] = table of enzyme assay Test (a)(ii), read-out: Test (a)(ii) IC50
[2] = read-out: mTOR Kinase Assay (Echo)

T1 sequence (P42345 1362-2549): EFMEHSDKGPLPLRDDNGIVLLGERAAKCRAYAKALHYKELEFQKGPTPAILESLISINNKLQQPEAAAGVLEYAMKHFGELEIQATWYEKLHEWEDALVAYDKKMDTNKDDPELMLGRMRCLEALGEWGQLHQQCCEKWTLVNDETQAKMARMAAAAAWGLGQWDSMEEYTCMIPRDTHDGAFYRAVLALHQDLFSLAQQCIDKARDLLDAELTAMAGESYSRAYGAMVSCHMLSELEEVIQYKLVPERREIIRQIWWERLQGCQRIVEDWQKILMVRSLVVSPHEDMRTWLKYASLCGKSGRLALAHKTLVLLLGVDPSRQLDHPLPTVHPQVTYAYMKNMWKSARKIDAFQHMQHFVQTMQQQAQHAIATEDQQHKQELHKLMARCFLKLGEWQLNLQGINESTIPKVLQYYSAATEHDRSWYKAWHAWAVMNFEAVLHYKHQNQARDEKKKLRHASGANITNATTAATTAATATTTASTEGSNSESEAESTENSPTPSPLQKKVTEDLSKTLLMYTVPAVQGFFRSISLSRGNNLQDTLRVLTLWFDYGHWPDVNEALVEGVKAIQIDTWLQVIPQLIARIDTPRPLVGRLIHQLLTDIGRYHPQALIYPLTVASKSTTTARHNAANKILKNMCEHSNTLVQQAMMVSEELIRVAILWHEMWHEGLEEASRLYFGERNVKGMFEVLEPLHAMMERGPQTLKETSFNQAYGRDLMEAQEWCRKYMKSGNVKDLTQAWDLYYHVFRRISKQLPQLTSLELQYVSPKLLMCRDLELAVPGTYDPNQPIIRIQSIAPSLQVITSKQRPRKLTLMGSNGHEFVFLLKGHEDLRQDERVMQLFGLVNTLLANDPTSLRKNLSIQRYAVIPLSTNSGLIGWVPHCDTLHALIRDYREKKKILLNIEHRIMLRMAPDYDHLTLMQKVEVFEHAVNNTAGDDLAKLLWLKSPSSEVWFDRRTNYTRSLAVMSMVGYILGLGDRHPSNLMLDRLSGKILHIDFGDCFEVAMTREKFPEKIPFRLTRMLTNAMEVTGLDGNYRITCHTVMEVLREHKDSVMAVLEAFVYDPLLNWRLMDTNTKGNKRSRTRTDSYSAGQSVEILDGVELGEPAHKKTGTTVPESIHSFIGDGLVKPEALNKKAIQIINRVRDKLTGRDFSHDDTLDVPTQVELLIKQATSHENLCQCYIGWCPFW

SMILES: C[C@H]1COCCN1c1cc(C2(S(=O)(=O)c3cncc(F)c3)CC2)nc(-c2ccc(NC(=O)NCCO)cc2)n1 [Example 17, 1-[4-[4-[1-(5-Fluoropyridin-3-yl)sulfonylcyclopropyl]-6-[(3S)-3-methylmorpholin-4-yl]pyrimidin-2-yl]phenyl]-3-(2-hydroxyethyl)urea]
- IC50 [1]: 1.16 nM

SMILES: CCNC(=O)Nc1ccc(-c2nc(N3CCOC[C@@H]3C)cc(C3(S(=O)(=O)C4CCCC4)CC3)n2)cc1 [Example 9e]
- IC50 [2]: 1.87 nM

SMILES: C[C@H]1COCCN1c1cc(C2(S(=O)(=O)CCCO)CCCC2)nc(-c2ccc(NC(=O)NCCC#N)cc2)n1 [Example 43h, 3-(2-cyanoethyl)-1-[4-[4-[1-(3-hydroxypropyl-sulfonyl)cyclopen-tyl]-6-[(3S)-3-methylmorpholin-4-yl]pyrimidin-2-yl]phenyl]urea]
- IC50 [1]: 133 nM

SMILES: C[C@H]1COCCN1c1cc(C2(S(=O)(=O)c3ccncc3)CC2)nc(-c2ccc(NC(=S)NCCO)cc2)n1 [Example 37ad, 3-(2-hydroxyethyl)-1-[4-[4-[(3S)-3-methylmorpholin-4-yl]-6-(1-pyridin-4-ylsulfonylcyclopropyl)pyrimidin-2-yl]phenyl]thiourea]
- IC50 [1]: 2.63 nM

SMILES: C[C@@H](CO)NC(=O)Nc1ccc(-c2nc(N3CCOC[C@@H]3C)cc(C3(S(=O)(=O)c4ccccc4)CC3)n2)cc1 [Example 36ec, 1-[4-[4-[1-(benzenesulfonyl)cyclopropyl]-6-[(3S)-3-methylmorpholin-4-yl]pyrimidin-2-yl]phenyl]-3-[(2S)-1-hydroxypropan-2-yl]urea]
- IC50 [1]: 3.21 nM

SMILES: C[C@H]1COCCN1c1cc(C2(S(=O)(=O)c3ccc(Cl)cc3)CCOCC2)nc(-c2ccc(NC(=O)NCCN(C)C)cc2)n1 [Example 23k, 1-[4-[4-[4-(4-chlorophenyl)sulfonyloxan-4-yl]-6-[(3S)-3-methylmorpholin-4-yl]pyrimidin-2-yl]phenyl]-3-(2-dimethylaminoethyl)urea]
- IC50 [1]: 1140 nM

SMILES: CCS(=O)(=O)C1(c2cc(N3CCOC[C@@H]3C)nc(-c3ccc(NC(=O)N[C@@H](C)CO)cc3)n2)CCC1 [Example 87e, 1-[4-[4-(1-ethylsulfonylcyclobutyl)-6-[(3S)-3-methylmorpholin-4-yl]pyrimidin-2-yl]phenyl]-3-[(2S)-1-hydroxypropan-2-yl]urea]
- IC50 [1]: 10.3 nM

SMILES: CCS(=O)(=O)C1(c2cc(N3CCOC[C@@H]3C)nc(-c3ccc(NC(=O)NC(C)C)cc3)n2)CC1 [Example 11c, 1-[4-[4-(1-ethylsulfonylcyclopropyl)-6-[(3S)-3-methylmorpholin-4-yl]pyrimidin-2-yl]phenyl]-3-propan-2-yl-urea]
- IC50 [2]: 24.7 nM

SMILES: CCNC(=S)Nc1ccc(-c2nc(N3CCOC[C@@H]3C)cc(C3(S(=O)(=O)c4ccccc4)CC3)n2)cc1 [Example 37z, 3-[4-[4-[1-(benzenesulfonyl)cyclopropyl]-6-[(3S)-3-methylmorpholin-4-yl]pyrimidin-2-yl]phenyl]-1-ethylthiourea]
- IC50 [1]: 4.81 nM

SMILES: CCNC(=O)Nc1ccc(-c2nc(N3CCOC[C@@H]3C)cc(C3(S(=O)(=O)CCCO)CC3)n2)cc1 [Example 31e, 1-ethyl-3-[4-[4-[1-(3-hydroxypropylsulfonyl)cyclopropyl]-6-[(3S)-3-methylmorpholin-4-yl]pyrimidin-2-yl]phenyl]urea]
- IC50 [1]: 1.07 nM

SMILES: CCCNC(=O)Nc1ccc(-c2nc(N3CCOC[C@@H]3C)cc(C3(S(=O)(=O)CCO)CC3)n2)cc1 [Example 16e, 3-[4-[4-[1-(2-hydroxyethylsulfonyl)cyclopropyl]-6-[(3S)-3-methylmorpholin-4-yl]pyrimidin-2-yl]phenyl]-1-propylurea]
- IC50 [1]: 21.4 nM

SMILES: CCNC(=O)Nc1ccc(-c2nc(N3CCOC[C@@H]3C)cc(C3(S(=O)(=O)CCC(C)(C)O)CC3)n2)cc1 [Example 79f, 1-ethyl-3-[4-[4-[1-(3-hydroxy-3-methylbutyl)sulfonylcyclopropyl]-6-[(3S)-3-methylmorpholin-4-yl]pyrimidin-2-yl]phenyl]urea]
- IC50 [1]: 39.8 nM

SMILES: CC(=O)NCCS(=O)(=O)C1(c2cc(N3CCOC[C@@H]3C)nc(-c3ccc(NC(=O)NC4CC4)cc3)n2)CC1 [Example 44, N-[2-[1-[2-[4-(Cyclopropylcarbamoylamino)phenyl]-6-[(3S)-3-methylmorpholin-4-yl]pyrimidin-4-yl]cyclopropyl]sulfonylethyl]acetamide]
- IC50 [1]: 23.4 nM

SMILES: CCCNC(=O)Nc1ccc(-c2nc(N3CCOC[C@@H]3C)cc(C3(S(C)(=O)=O)CCCC3)n2)cc1 [Example 4h, 1-[4-[4-[(3S)-3-methylmorpholin-4-yl]-6-(1-methylsulfonylcyclopentyl)pyrimidin-2-yl]phenyl]-3-propyl-urea]
- IC50 [2]: 1.57 nM
- IC50 [1]: 1.46 nM

SMILES: C[C@H]1COCCN1c1cc(C2(S(=O)(=O)c3cccc(F)c3)CC2)nc(-c2ccc(NC(=O)NC3CC3)cc2)n1 [Example 53a, 3-cyclopropyl-1-[4-[4-[1-(3-fluorophenyl)sulfonylcyclopro-pyl]-6-[(3S)-3-methylmorpholin-4-yl]pyrimidin-2-yl]phenyl]urea]
- IC50 [1]: 2.29 nM

SMILES: CNC(=O)Nc1ccc(-c2nc(N3CCOC[C@@H]3C)cc(C3(S(=O)(=O)c4cc(F)cc(F)c4)CC3)n2)cc1 [Example 19i, 1-[4-[4-[1-(3,5-difluorophenyl)sulfonylcyclopro-pyl]-6-[(3S)-3-methylmorpholin-4-yl]pyrimidin-2-yl]phenyl]-3-methylurea]
- IC50 [1]: 1.52 nM

SMILES: C[C@H]1COCCN1c1cc(C2(S(=O)(=O)C3CCCC3)CC2)nc(-c2ccc(NC(=O)NC(C)(C)CO)cc2)n1 [Example 9k]
- IC50 [2]: 11.5 nM

SMILES: C[C@H]1COCCN1c1cc(C2(S(=O)(=O)c3ccccn3)CCCC2)nc(-c2ccc(NC(=O)NC3CC3)cc2)n1 [Example 36ab, 3-cyclopropyl-1-[4-[4-[(3S)-3-methylmorpholin-4-yl]-6-(1-pyridin-2-ylsulfonylcyclopentyl)pyrimidin-2-yl]phenyl]urea]
- IC50 [1]: 11 nM

SMILES: C[C@H]1COCCN1c1cc(C2(S(C)(=O)=O)CCCC2)nc(-c2cnc(NC(=O)NC3CC3)nc2)n1 [Example 14s, 3-cyclopropyl-1-[5-[4-[(3S)-3-methylmorpholin-4-yl]-6-(1-methylsulfonylcyclopentyl)pyri-midin-2-yl]pyrimidin-2-yl]urea]
- IC50 [1]: 122 nM

SMILES: C[C@H]1COCCN1c1cc(C2(S(=O)(=O)C3CC3)CCCC2)nc(-c2ccc(NC(=O)NCCCO)cc2)n1 [Example 36m, 1-[4-[4-(1-cyclopropylsulfonylcyclopentyl)-6-[(3S)-3-methylmorpholin-4-yl]pyrimidin-2-yl]phenyl]-3-(3-hydroxypropyl)urea]
- IC50 [1]: 34.7 nM

SMILES: C[C@H]1COCCN1c1cc(C2(S(C)(=O)=O)CCC2)nc(-c2ccc(NC(=O)NCCCO)cc2)n1 [Example 5j, 3-(3-hydroxypropyl)-1-[4-[4-[(3S)-3-methylmorpholin-4-yl]-6-(1-methylsulfonylcyclobutyl)pyrimidin-2-yl]phenyl]urea]
- IC50 [2]: 0.239 nM
- IC50 [1]: 0.173 nM

SMILES: CCS(=O)(=O)C1(c2cc(N3CCOC[C@@H]3C)nc(-c3ccc(NC(=O)NCC(F)F)cc3)n2)CC1 [Example 36eg, 3-(2,2-difluoroethyl)-1-[4-[4-(1-ethylsulfonylcyclopropyl)-6-[(3S)-3-methylmorpholin-4-yl]pyrimidin-2-yl]phenyl]urea]
- IC50 [1]: 8.77 nM

SMILES: C[C@H]1COCCN1c1cc(C2(S(C)(=O)=O)CC2)nc(-c2ccc(NC(=O)NC3(CO)CC3)cc2)n1 [Example 2ab, 3-[1-(hydroxymethyl)cyclopropyl]-1-[4-[4-[(3S)-3-methylmorpholin-4-yl]-6-(1-methylsulfonylcyclopropyl)pyrimidin-2-yl]phenyl]urea]
- IC50 [2]: 55.3 nM

From patent publication US20090018134A1, “Compounds - 945” (AstraZeneca AB, priority 2007, published 2009)
